The target in one data set is T1, human V1A receptor (Homo sapiens, UniProt P37288).
T1 construct: expressed in transfected cells; host or cells: CHO (CHO-hV1A cell line provided by Marc Thibonnier, Case Western Reserve University)
The data set can be described thus: Ligand binding assay, [3H]-AVP binding to CHO-hV1A membranes.

The next data set deals with T2, human Oxytocin receptor (Homo sapiens, UniProt P30559).
T2 construct: expressed in transfected cells; host or cells: CHO
T2 sequence (P30559 1-389): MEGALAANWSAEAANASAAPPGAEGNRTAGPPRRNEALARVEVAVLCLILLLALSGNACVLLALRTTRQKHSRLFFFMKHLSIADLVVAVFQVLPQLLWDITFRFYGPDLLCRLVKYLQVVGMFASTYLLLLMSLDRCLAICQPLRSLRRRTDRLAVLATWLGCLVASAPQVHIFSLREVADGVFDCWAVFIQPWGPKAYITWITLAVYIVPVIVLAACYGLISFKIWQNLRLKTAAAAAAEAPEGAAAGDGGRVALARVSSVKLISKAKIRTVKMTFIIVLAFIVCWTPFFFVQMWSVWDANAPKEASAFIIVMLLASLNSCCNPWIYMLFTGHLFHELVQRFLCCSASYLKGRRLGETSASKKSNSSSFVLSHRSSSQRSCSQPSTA
The data set is described as follows: Oxytocin receptor binding assay (125I-OVT, SPA). As to the method:
As an example for a selectivity assay, an oxytocin receptor binding assay is described below.
CHO-cells engineered to express the human Oxytocin receptor are maintained, and membrane preparations from such cells are prepared according to standard techniques (see e.g. Example 2). They are diluted to 1 mg/ml protein concentration in assay buffer (50 mM Tris-HCl, pH7.8; 10 mM Mg Cl2; 0.25% BSA). SPA beads are resuspended at 50 mg/ml in assay buffer. From these concentrations, beads are pre-coupled with membranes by incubating 30 µg of protein per mg of bead on a top-to-tail shaker for 2 hours at 4 °C. The bead/membranes are then centrifuged at 2000 rpm for 10 mins and the pellet is resuspended at 3 mg/ml.
All manipulations of the ^125I-OVT (NEN, NEX254) are carried out using tips that have been silanised using SigmaCote. All bottles and tubes are also silanised. […] A 5 µl sample is then counted in duplicate using liquid scintillation counting (protocol 61 on Wallac Counter) and the concentration of the ligand is calculated. […] Using the measured concentration, the ^125I-OVT is diluted to 0.3 nM in assay buffer.
20 µl of the bead/membrane preparation is added to the prepared Optiplates using the Multi-drop, after the desired dilutions of test compounds are added to the wells. […] Following a 4 hour incubation at room temperature, the plates are counted using the TopCount NXT for 30s/well.

Another data set deals with conscious rats. The data set is described as follows: Copulatory behaviour in conscious rats (ejaculatory latency). It is filed as in vivo. As to conditions: 0.05mgkg^-1 sc. The procedure: For all the sexual behavour tests, the male rats were placed in an observation arena (50-60 cm diameter), starting 5 hours into the dark cycle and observed under red ilumination. Three to four minutes after placing the male in the arena, a receptive female (ovariectomised, oestradiol benzoate / progesterone injection 48 hour before behavioural study) was Introduced into the arena and the following parameters noted: • i) ejaculatory latency (EJL; time taken from addition of receptive female into the arena to ejaculation); • ii) copulatory efficiency (CE; ejaculatory latency/ the number of intromissions to ejaculation, i.e. the number of seconds between intromissions); • iii) intromission frequency (IF; the number of intromissions to ejaculation); • iv) mount frequency (MF; the number of mounts to ejaculation); • v) post ejaculatory interval (PEI; the time taken from ejaculation to the commencement of copulatory behaviour).
Rodent copulatory behaviour is characterised by a series of mounts, with and without vaginal insertion (50-80% of mounts result in intromission [vaginal penetration]) and ejaculation occurs after 6 to 12 intromissions. Each intromission lasts a matter of seconds - it is not possible to quantify intromission length i.e. intravaginal latency. The effect of L-371257 was assessed on a number of copulatory parameters (see above). […]

A short description of data set [1]: Plasma concentration in the copulatory behaviour study. In kind it is in vivo. As to conditions: 0.05mgkg^-1 sc, rats.
Another data set deals with anaesthetised rats. The data set can be described thus: p-chloroamphetamine (PCA)-induced ejaculation and penile erection in anaesthetised rats. As to conditions: for delay of p-chloroamphetamine (PCA)-induced ejaculation: vasopressin selective doses, plasma concentration of 9-31 nM; for Penile Cups / Penile Flares: % of PCA-induced erections. In kind it is in vivo, Male Sprague Dawley rats. As to the method:
In order to study penile erection and ejaculation the method used was based on the methodology taught in Yonezawa et al (2000) Life Sciences 67, 3031-3039. For ease of reference, this methodology is described below:
Male Sprague Dawley rats, weighing 350-450 g, are used. Prior to the experiments the animals are housed in groups (2 rats per cage) under controlled 12 h light-dark cycle (lights on at 07:00), constant temperature (23±1°C) and humidity (55±5%). They have free access to standard food pellets and water.
Rats are anesthestised with sodium pentobarbitone (50mg/kg, i.p.) and are placed in the supine position. The penis is extruded from its sheath and gently held by a wooden applicator positioned at the base of the penis. The test compounds are administered by intravenous infusion and p-chloroamphetamine (PCA) (5-10mg/kg) is administered i.p. immediately before the sheath retraction and the penile responses, including penile erection, redding and expansion of the penile body, glans erection, engorgement and slight flaring of the glans and cup, glans erection with Intense flaring of the glans, are recorded. Latencies from PCA administration to the initial penile response and ejaculation is also measured In seconds. […]

Setting [2] is: plasma conc 30.9nM, listed as compound 1.

pKi: −log10 of the molar value. Like-named read-outs stand apart in the source and are kept apart here.

T1 sequence (P37288 whole entry): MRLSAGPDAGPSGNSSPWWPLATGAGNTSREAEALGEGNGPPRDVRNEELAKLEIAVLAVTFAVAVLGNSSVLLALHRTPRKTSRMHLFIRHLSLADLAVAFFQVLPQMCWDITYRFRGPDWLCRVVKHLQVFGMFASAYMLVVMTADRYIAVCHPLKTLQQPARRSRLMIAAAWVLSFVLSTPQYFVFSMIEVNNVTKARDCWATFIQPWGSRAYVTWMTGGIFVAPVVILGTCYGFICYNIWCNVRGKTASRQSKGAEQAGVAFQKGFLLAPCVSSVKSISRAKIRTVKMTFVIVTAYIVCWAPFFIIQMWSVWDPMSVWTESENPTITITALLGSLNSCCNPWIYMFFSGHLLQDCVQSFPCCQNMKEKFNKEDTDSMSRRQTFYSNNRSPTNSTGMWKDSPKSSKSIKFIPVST
Experimental for human V1A receptor: Receptor binding assays were performed on cellular membranes prepared from CHO cells stably expressing the human V1A receptor, (CHO-hV1A). […] CHO-hV1A cells were routinely maintained at 37°C In humidified atmosphere with 5% CO2 in DMEM/Hams F12 nutrient mix supplemented with 10 % fetal bovine serum, 2 mM L-glutamine, 15 mM HEPES and 400 µg/ml G418. For bulk production of cell pellets, adherent CHO-hV1A cells were grown to confluency of 90-100% in 850 cm^2 roller bottles containing a medium of DMEM/Hams F12 Nutrient Mix supplemented with 10 % fetal bovine serum, 2 mM L-glutamine and 15 mM HEPES. Confluent CHO-hV1A cells were washed with phosphate-buffered saline (PBS), harvested into ice cold PBS and centrifuged at 1,000 rpm. Cell pellets were stored at -80°C until use. Cell pellets were thawed on ice and homogenised in membrane preparation buffer consisting of 50 mM Tris-HCI, pH 7.4, 5 mM MgCl2 and supplemented with a protease inhibitor cocktail, (Roche). The cell homogenate was centrifuged at 1000 rpm, 10 min, 4°C and the supernatant was removed and stored on ice. The remaining pellet was homogenised and centrifuged as before. The supernatants were pooled and centrifuged at 25,000 x g for 30 min at 4°C. The pellet was resuspended in freezing buffer consisting of 50 mM Tris-HCI, pH 7.4, 5 mM MgCl2 and 20 % glycerol and stored in small aliquots at -80°C until use. Protein concentration was determined using Bradford reagent and BSA as a standard.
Protein linearity followed by saturation binding studies were performed on each new batch of membrane. A membrane concentration was chosen that gave specific binding on the linear portion of the curve. […]
Compounds were tested for their effects on [^3H]-AVP binding to CHO-hV1A membranes, (^3H-AVP; specific activity 65.5 Ci/mmol; NEN Life Sciences). […] The plates were sealed and counted on a TopCount Microplate Scintillation Counter (Packard Instruments). Non-specific binding (NSB) was determined using 1 µM unlabelled d(CH2)5Tyr(Me)AVP ([β-mercapto-β,β-cyclopentamethylene-propionyl,0-Me-Tyr^2,Arg^8]-vasopressin) (βMCPVP), (Sigma). The radioligand binding data was analysed using a four parameter logistic equation with the min forced to 0%. […] Specific binding was calculated by subtracting the mean NSB cpm from the mean Total cpm. For test compounds the amount of ligand bound to the receptor was expressed as % bound = (sample cpm - mean NSB cpm)/specific binding cpm x100. […] The Inhibitory dissociation constant (Ki) was calculated using the Cheng-Prusoff equation: Ki=IC50/(1+[L]/Kd) where [L] is the concentration of ligand present in the well and Kd is the dissociation constant of the radioligand obtained from Scatchard plot analysis.

`COc1cc(OC2CCN(C(C)=O)CC2)ccc1C(=O)N1CCC(N2C(=O)OCc3ccccc32)CC1` [Compound L-371257, reference compound]: at human V1A receptor (as printed: OT vs V1a), the “selective towards oxytocin receptors as compared with vasopressin V1a receptors” value is “more than 5 fold”. In addition, the pKi on human V1A receptor (read-out: vasopressin V1a receptors (V1a; Ki V1a)) is 8.43; at human Oxytocin receptor (read-out: oxytocin receptors (OT)) it was 7.72. In addition, the “other effects on copulatory behaviour” value with conscious rats was “no other significant effects”. This compound also returned an Increased ejaculatory latency in the data set with conscious rats (P<0.05 versus vehicle) of 67%. Further, in data set [1], the Plasma conc result is on record as “L-371257 0.05mgkg^-1 sc Plasma conc ∼ 30nM”.

For the compound `COC1CCN(Cc2nnc(C3CCN(c4ccccn4)CC3)n2Cc2ccccc2)CC1` [Compound 1, 4-[4-Benzyl-5-(4-methoxy-piperldin-1-ylmethyl)-4H-[1,2,4]triazol-3-yl]-3,4,5,6-tetrahydro-2H-[1,2']bipyridinyl], the results for the pKi at human V1A receptor and on human Oxytocin receptor (read-out: oxytocin receptors (OT; Ki OT)) were 7.30 and 5.52, respectively. In addition, the “selective towards vasopressin V1a receptors as compared with oxytocin receptors” value on human V1A receptor is reported as “more than 60 fold”. Besides, the “time taken for the rats to achieve erection” value in the data set with anaesthetised rats (anaesthetised rats, PCA-induced) is given as “not significantly affected”. For the same compound, the Ejaculation was delayed with anaesthetised rats (anaesthetised rats, free plasma concentrations 30.9nM, near maximal effect) amounted to 100%. Moreover, the “delay of p-chloroamphetamine (PCA)-induced ejaculation” value in the data set on anaesthetised rats (anaesthetised rats) is “delays ejaculation”; with anaesthetised rats (anaesthetised rats, listed as compound 1), “significantly delayed”. Further, the “ejaculation and penile erection” value in the data set on anaesthetised rats (at both plasma conc 11.4nM and 30.9nM) was “* At both of these concentrations Compound 1 delayed ejaculation without affecting penile erection”. In addition, the “Penile Cups” value was determined as 31.6% with anaesthetised rats (plasma conc 11.4nM), 57.0% in the data set with anaesthetised rats (plasma conc 30.9nM) and 57% with anaesthetised rats (setting [2]). Also, the “Penile Flares” value with anaesthetised rats (plasma conc 11.4nM) is 81.5%; in the data set with anaesthetised rats (plasma conc 30.9nM), 83.6%; with anaesthetised rats (setting [2]) it was 84%.

Source of the values: patent publication EP1656183B1, “TREATMENT OF MALE SEXUAL DYSFUNCTION” (Pfizer Limited, priority 2003, dated 2005).
